Measurements from patent US20150353626A1, “APOLIPOPROTEIN A-I DERIVED PEPTIDES FOR TREATMENT OF HYPERGLYCAEMIA” (priority 2013, published 2015).
Ends that are not written are not given here.

Columns and labels:
AMPK = assay: Western blot for phosphorylated AMPK in L6 myotube lysates; format: cell-based; conditions: L6 myotubes, 60 minutes; rHDL 700 μg/ml apoA-I; phenformin 0.4 mmol/l; FIG. 3a,b
Method: (§1) Prior to stimulation or treatment cultured myoblast cells were serum starved for 4 hours in serum-free α-MEM and all subsequent treatments, including insulin or phenformin as positive controls (Sigma), were performed in serum free a-MEM. After treatments, cells were washed with ice cold PBS buffer and lysed on ice using a non-denaturing lysis buffer (1% Triton X-100, 50 mmol/l Tris, 150 mmol/l NaCl, pH 8.0) containing protease and phosphatase inhibitors (Roche). Lysates were centrifuged at 16,000×g, 20 minutes at 4° C. and BCA protein assay (Pierce) was performed on supernatants. Equal protein amounts were separated by SDS-PAGE and transferred to nitrocellulose membranes. pAMPK, AMPK, pACC, pAkt, Akt and tubulin were used for immunodetection with IRDye 800CW and 680RD secondary antibodies (LI-COR). Blots were imaged using the Odyssey Fc system and quantified using Image studio v2.0 software.
To dissect the effect of discoidal rHDL on a non-insulin dependent signaling pathway, we conducted western blotting using lysates from L6 myotubes incubated with rHDL. […] Phenformin was used as a positive control, inducing a 1.98±0.33-fold (p=≦0.05) and 2.7±0.74-fold (p=≦0.05) elevation of phosphorylated AMPK and ACC, respectively, at a concentration of 0.4 mmol/l. […] Representative immunoblots of those quantified for FIGS. 3a, c and f are given in FIGS. 3b, d and e, respectively. […]

ACC = assay: Western blot for phosphorylated ACC in L6 myotube lysates; format: cell-based; conditions: L6 myotubes, 60 minutes; rHDL 700 μg/ml apoA-I; phenformin 0.4 mmol/l; FIG. 3c,d
Method: as §1
To dissect the effect of discoidal rHDL on a non-insulin dependent signaling pathway, we conducted western blotting using lysates from L6 myotubes incubated with rHDL. […] Phenformin was used as a positive control, inducing a 1.98±0.33-fold (p=≦0.05) and 2.7±0.74-fold (p=≦0.05) elevation of phosphorylated AMPK and ACC, respectively, at a concentration of 0.4 mmol/l. […] Representative immunoblots of those quantified for FIGS. 3a, c and f are given in FIGS. 3b, d and e, respectively.

[1] = system: insulin resistant C57Bl/6 mice; assay: Glucose tolerance test in high-fat diet fed (HFD) mice; format: in vivo, mouse; conditions: glucose load 3 hours later
Method: Male C57BL/6 mice (Taconic) were used at 9-12 weeks of age. Animals were on a 12 hour light cycle with non-restricted food and water. The HFD animals were fed an HFD (D12492, 60% fat content; Research Diets) for 2 weeks. All animal procedures were approved by the Malmo/Lund Committee for Animal Experiment Ethics, Lund, Sweden. HFD mice fasted overnight (12 hours) were injected intra peritoneal (i.p.) with apoA-I peptides as listed above ([…] in PBS pH 7.4 for the 54-mer fragment and 6-7 mg/kg for other fragments in PBS, pH 7.4; control animals received NaCl) and this was followed by collection of serum samples at the indicated times. Glucose (50 mg/mouse) was injected i.p. 3 hours after treatments, followed by collection of serum samples at the indicated times. Blood glucose levels were measured (OnetouchUltra2; Lifescan), and insulin levels were assayed in serum using ELISA (Mercodia).

[2] = apo-state versus discoidal HDL; Saito et al. (2004); cited from earlier work
[3] = Circular dichroism spectroscopy, alpha-helical content; format: physicochemical; conditions: 0.2 mg/ml in PBS pH 7.4, 25° C.
Method: CD measurements were performed on a Jasco J-810 spectropolarimeter equipped with a Jasco CDF-4265 Peltier set to 25° C. ApoA-I (full-length and the 190-234 polypeptide fragment) was diluted to 0.2 mg/ml in PBS (final concentration was 25 mmol/l phosphate, 25 mmol/l NaCl, pH 7.4), placed in a 0.1 mm quartz cuvette and, after extensive purging with nitrogen, scanned in the region 200 to 260 nm (scan speed was 20 nm/min). Averages of five scans were baseline-subtracted (PBS; 25 mmol/l phosphate, 25 mmol/l NaCl) and the alpha-helical content was calculated from the molar ellipticity at 222 nm as previously described (Petrlova et al. (2012) J Lipid Res 53: 390-398).

L6 myotubes = assay: Glucose uptake in L6 myotubes (2-[3H]-deoxy-D-glucose); format: cell-based; conditions: 2 h serum starved, 50 μg/ml (1.6 μmol/l) apoA-I or 100 nmol/l insulin, 1 hour, FIG. 1b
Method: L6 myoblasts (ATCC #CRL-1458) were grown in α-MEM (Invitrogen) supplemented with 10% FBS (Sigma) and 1% antibiotic/antimycotic (Penicillin, streptomycin, amphotericin B; Invitrogen). Differentiation to myotubes was achieved by switching from growth media to 2% FBS a-MEM for 6-7 or 6-12 days. Cells were maintained at 37° C. and 5% CO2.
Prior to stimulation (or treatment) cells were starved for 2 hours in serum-free a-MEM and all subsequent treatments, which were performed in triplicate and included cytochalasin B (Sigma) as a measure of cell associated non-specific radioactivity, were performed in uptake buffer (140 mmol/l NaCl, 20 mmol/l HEPES, 5 mmol/l KCl, 2.5 mmol/l MgSO4, 1 mmol/l CaCl2, pH 7.4). After stimulation, treatments were replaced with 10 μmol/l 2-deoxy-D-glucose (Sigma), 10 μmol/l 2-[3H]-deoxy-D-glucose (Perkin Elmer) in uptake buffer for 15 mins at room temperature. Cells were then washed twice with ice cold PBS and lysed with 1 mol/l NaOH on ice. Lysates were collected and radioactivity quantified by scintillation counting.
In order to investigate the effect of discodial HDL (rHDL) on GLUT4 translocation and glucose uptake, we produced recombinant human apoA-I and reconstituted HDL needed for cell incubations. L6 myotubes were incubated with 50 μg/ml (1.6 μmol/l) apoA-I for 1 hour followed by a glucose uptake assay as described above. […] Next, L6 myotubes were treated by incubation with 50 μg/ml discodial rHDL (expressed as total concentration of apoA-I in rHDL, given 2 apoA-I molecules per particle) for 1 hour. […] This experiment was thereafter repeated in more controlled manner including cell number and quality (cells were similarly treated during differentiation from myoblasts to multinuclear myotubes, with respect to the time between splitting cells, cell density, passage of cells used.) (FIG. 7c).
The relative effect of specific regions of apoA-I to increase glucose uptake was investigated using truncated protein fragments corresponding to residues 1-189 (N-terminal/central domain), 44-189 (central domain), 44-243 (central/C-terminal domain) and 190-243 (C-terminal domain) of full-length apoA-I (FIG. 4a). The treatments with incubation of truncated protein fragments were performed as described above for treatment of L6 myotubes with full-length apoA-I and followed by a glucose uptake assay as described above.
To test for the contribution of the constituent phospholipid to rHDL-induced glucose uptake in L6 myotubes, rHDL made with DMPC was also produced and compared to 100 nm DMPC vesicles containing no apoA-I protein. Stable 100 nm diameter vesicles can be synthesized with DMPC in the absence of apoA-I and was therefore used as a phospholipid control. The effect on the glucose uptake was tested as described above. […] To also test for the contribution of the constituent POPC phospholipid to rHDL-induced glucose uptake, rHDL made with POPC was compared with 100 nm POPC vesicles containing no apoA-I protein.

[4] = target: the molecule itself; assay: blue native PAGE, coomassie stained; self-association (homo-oligomer) in solution and after 1 hour with L6 myotubes
From the text: It is known that the 190-234 polypeptide fragment can form discoidal particles by solubilisation of lipid in solution (Vedhachalan et al. (2010) J Biol Chem 285:31965-31973), which can be visualised as oligomers on native PAGE. […] Lipid-free apoA-I and rHDL were included on the gel as a full length protein monomer and dimer reference.

[5] = 18-mer peptides, single injection 7 mg/kg, FIG. 12
[6] = 23- or 27-mer peptides, single injection 6-7 mg/kg, FIG. 11

Molecule: [H]/N=C(/N)N/C(=N/[H])NCCc1ccccc1 [Phenformin, phenformin, reference compound]
- levels of phosphorylated AMPK (AMPK): 1.98±0.33 fold
- levels of phosphorylated ACC (ACC): 2.7±0.74 fold

Molecule: SEQ ID NO: 2: fragment consisting of amino acids 190-207 of human ApoA-I (AEYHAKATEHLSTLSEKA; listed as Homo Sapiens)
- glucose tolerance capacity / capacity to clear blood glucose (in words) [1, 5]: showed particular increased capacity to clear blood glucose

Molecule: SEQ ID NO: 4: fragment consisting of amino acids 226-243 of human ApoA-I (KVSFLSALEEYTKKLNTQ; listed as Homo Sapiens)
- glucose tolerance capacity / capacity to clear blood glucose (in words) [1, 5]: showed particular increased capacity to clear blood glucose

Molecule: SEQ ID NO: 8: fragment consisting of amino acids 217-243 of human ApoA-I (GLLPVLESFKVSFLSALEEYTKKLNTQ; listed as Homo Sapiens)
- glucose tolerance capacity / capacity to clear blood glucose (in words) [1, 6]: showed particular increased capacity to clear blood glucose

Molecule: SEQ ID NO: 518: fragment consisting of amino acids 204-226 of human ApoA-I (SEKAKPALEDLRQGLLPVLESFK; listed as Homo Sapiens)
- glucose tolerance capacity / capacity to clear blood glucose (in words) [1, 6]: showed particular increased capacity to clear blood glucose

Molecule: apoA-I: recombinant full-length human apolipoprotein A-I, amino acids 1-243, lipid-free
- alpha-helical secondary structure [2]: about 44%
- helical content from molar ellipticity at 222 nm [3]: 43%
- increased glucose uptake (L6 myotubes): 1.3 fold

B1: 190-243 polypeptide fragment of human apoA-I (SEQ ID NO: 1) (peptide, not shown: small tags and cut ends)
chain: AEYHAKATEHLSTLSEKAKPALEDLRQGLLPVLESFKVSFLSALEEYTKKLNTQ
modifications: also: N-terminal hexa-His tag (letters not given here)
notes: Recombinant, expressed in E. coli
- binding result [4]: binds
